The text below walks through data of patent US11339144B2 (Navitor Pharmaceuticals, Inc., priority 2017, dated 2022).

Like-named read-outs stand apart in the source and are kept apart here.

One test deals with S473pAkt in MCF-7 cells. In words: Cell-based AlphaLISA assay, pAkt (S473). Background: Alpha assays give light when donor and acceptor beads are brought close together.
Test [1] addresses HA-GST-Rheb (GTP-γ-S loaded) activating mTORC1 (Homo sapiens (Human), UniProt Q15382). As to the kind of experiment: Rheb-dependent in vitro kinase assay (Rheb-IVK; LanthaScreen or Western readout). It counts as biochemical.
In the next test the test system is T389pS6K1 in MCF-7 cells. In words: Cell-based AlphaLISA assay, pS6K1 (Thr389).
Another test concerns the target Rheb (Homo sapiens (Human), UniProt Q15382). In words: Affinity Selection Mass Spectrometry (ASMS). The conditions noted are these: affinity (R3/R0) in Affinity Selection Mass Spectrometry assay. It counts as binding. In a few lines:
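Affinity selection used 2 μM compound with 60 μM Rheb and 180 μM GDP for 30 min at room temperature. After 10 kDa ultrafiltration washes, protein was denatured in MeCN and bound compound quantified by C18 UPLC with Q-TOF MS, against a no-protein control.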

In test [2] the test system is mTORC1 and mTORC2 signaling in PC3 cells. As to the kind of experiment: Long-term treatment vs. rapamycin in PC3 cells, Western blot. It counts as cell-based. Conditions: replete, 2, 5, 18 or 24 hrs, NR1 30 μM, rapamycin 100 nM. (In western blotting, separated proteins are transferred to a membrane and probed.)
The mark [3] stands for this setting: LanthaScreen variation, Terbium labeled T46p4E-BP1 specific antibody, read-out: IC50 in the Rheb-IVK.
The mark [4] stands for this setting: Rheb-dependent in vitro kinase assay, read-out: IVK IC50.

Usually IC50 stands for the concentration that inhibits the measured activity by half.

Sequence of Rheb (Q15382 1-169 limits assumed): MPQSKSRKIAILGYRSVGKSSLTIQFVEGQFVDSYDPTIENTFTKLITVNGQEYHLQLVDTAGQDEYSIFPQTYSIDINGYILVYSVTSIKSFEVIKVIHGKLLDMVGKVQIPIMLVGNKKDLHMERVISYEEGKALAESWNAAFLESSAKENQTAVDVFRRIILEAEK
Sequence of HA-GST-Rheb (GTP-γ-S loaded) activating mTORC1 (Q15382 1-181): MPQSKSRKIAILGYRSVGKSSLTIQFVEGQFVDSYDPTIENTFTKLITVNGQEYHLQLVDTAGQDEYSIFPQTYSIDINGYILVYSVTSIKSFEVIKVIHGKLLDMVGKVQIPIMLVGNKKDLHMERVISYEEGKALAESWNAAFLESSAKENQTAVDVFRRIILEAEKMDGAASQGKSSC

With `CCC(=O)N1CCN(c2ccc(-n3c(=O)ccc4cnc5ccc(-c6cnc7ccccc7c6)cc5c43)cc2C(F)(F)F)CC1` [Torin-1, reference compound], the IC50 is about 0.005 µM in the test with S473pAkt in MCF-7 cells, about 0.002 µM in test [1] (setting [3]) and about 0.001 µM with T389pS6K1 in MCF-7 cells.
`CN(C)C(=O)c1ccc(Cn2c(C(=O)O)cc3c(Br)cc(Sc4ccc(Cl)c(Cl)c4)cc32)cc1` [I-102, 4-Bromo-6-(3,4-dichlorophenylthio)-1-(4-(dimethylcarbamoyl)benzyl)-1H-indole-2-carboxylic acid]: at Rheb, the “ASMS (R3/R0)” value was “B (an affinity (R3/R0) between 100% and 20%)”. The “inhibition of pAKT” value in the test on S473pAkt in MCF-7 cells is “did not inhibit pAKT”. The IC50 in test [1] (setting [3]) is about 2.1 µM; in test [1] (setting [4]), under 10 µM.
For `CO[C@H]1C[C@@H]2CC[C@@H](C)[C@@](O)(O2)C(=O)C(=O)N2CCCC[C@H]2C(=O)O[C@H]([C@H](C)C[C@@H]2CC[C@@H](O)[C@H](OC)C2)CC(=O)[C@H](C)/C=C(\C)[C@@H](O)[C@@H](OC)C(=O)[C@H](C)C[C@H](C)/C=C/C=C/C=C/1C` [rapamycin, reference compound], the “mTORC1 versus mTORC2 signaling with chronic exposure (T389pS6K1, S473pAkt)” value in test [2] is recorded as “inhibits mTORC2 signaling with chronic exposure”. In addition, in test [1] (LanthaScreen variation, no FKBP12 present), the “inhibition of the Rheb-IVK” value is given as “did not inhibit the Rheb-IVK”.
As for `CN1CCC(CNC(=O)c2cc3c(Sc4ccc(Cl)cc4Cl)cc(Cl)cc3[nH]2)CC1` [I-120, 6-chloro-4-(2,4-dichlorophenylthio)-N-((1-methylpiperidin-4-yl)methyl)-1H-indole-2-carboxamide], the “ASMS (R3/R0)” value on Rheb is “B (an affinity (R3/R0) between 100% and 20%)”. Moreover, the IC50 in test [1] (setting [4]) is under 10 µM; in the test on T389pS6K1 in MCF-7 cells (Homo sapiens, MCF7), under 10 µM.
On to `CN1CCN(c2cccc(NC(=O)c3cc4c(-c5cc(Cl)cc(Cl)c5)cc(Cl)cc4[nH]3)c2)CC1` [I-30, 6-chloro-4-(3,5-dichlorophenyl)-N-(3-(4-methylpiperazin-1-yl)phenyl)-1H-indole-2-carboxamide], for which the “ASMS (R3/R0)” value on Rheb is “A (an affinity (R3/R0)>100%)”. Moreover, the IC50 in test [1] (setting [4]) was under 10 µM; in the test on T389pS6K1 in MCF-7 cells (Homo sapiens, MCF7), under 10 µM.
In the case of `CN1CCN(c2ccc(NC(=O)c3cc4c(Sc5ccc(Cl)cc5)cc(Cl)cc4[nH]3)cc2F)CC1` [I-141, 6-chloro-4-(4-chlorophenylthio)-N-(3-fluoro-4-(4-methylpiperazin-1-yl)phenyl)-1H-indole-2-carboxamide], at Rheb, the “ASMS (R3/R0)” value was “B (an affinity (R3/R0) between 100% and 20%)”. Besides, the IC50 was under 10 µM in test [1] (setting [4]) and under 10 µM with T389pS6K1 in MCF-7 cells (Homo sapiens, MCF7).
